31 molecules from patent US8222416B2, “Azaindole glucokinase activators” (Hoffmann-La Roche Inc., priority 2009, dated 2012) can be followed below.

This test has as its target T1, Recombinant human liver GK1 (GST-GK) (Homo sapiens, UniProt P35557).
T1 construct: made in house; host or cells: E. coli
T1 sequence (P35557 1-466 isoform P35557-2): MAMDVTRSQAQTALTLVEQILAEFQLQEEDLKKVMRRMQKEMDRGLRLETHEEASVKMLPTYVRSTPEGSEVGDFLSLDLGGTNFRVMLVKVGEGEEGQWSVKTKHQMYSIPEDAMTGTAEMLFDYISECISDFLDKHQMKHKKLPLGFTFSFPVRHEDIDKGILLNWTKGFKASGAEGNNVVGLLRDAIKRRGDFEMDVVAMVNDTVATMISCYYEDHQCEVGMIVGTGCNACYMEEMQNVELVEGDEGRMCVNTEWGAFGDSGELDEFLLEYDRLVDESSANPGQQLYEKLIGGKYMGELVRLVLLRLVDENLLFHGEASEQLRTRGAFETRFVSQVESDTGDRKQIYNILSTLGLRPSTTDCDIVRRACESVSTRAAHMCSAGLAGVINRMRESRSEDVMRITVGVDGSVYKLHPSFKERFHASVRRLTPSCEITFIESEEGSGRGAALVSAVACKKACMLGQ
In words: In vitro glucokinase activity assay (G6PDH-coupled, NADH, OD340). In kind it is biochemical. As to conditions: for SC1.5: concentration of activator that produced a 50% increase in the activity of GK, 5 mM D-glucose, 30° C. How it is done:
Glucokinase In Vitro Assay Protocol: Glucokinase (GK) was assayed by coupling the production of glucose-6-phosphate to the generation of NADH with glucose-6-phosphate dehydrogenase (G6PDH, 0.75-1 kunits/mg; Boehringer Mannheim, Indianapolis, Ind.) from Leuconostoc mesenteroides as the coupling enzyme (Scheme 2).
Recombinant human liver GK1 was expressed in E. coli as a glutathione S-transferase fusion protein (GST-GK) [Liang et al, 1995] and was purified by chromatography over a glutathione-Sepharose 4B affinity column using the procedure provided by the manufacturer (Amersham Pharmacia Biotech, Piscataway, N.J.).
The assay was conducted at 30° C. in a flat bottom 96-well tissue culture plate from Costar (Cambridge, Mass.) with a final incubation volume of 120 μL. The incubation reaction contained the following: 25 mM Hepes buffer (pH 7.1), 25 mM KCl, 5 mM D-glucose, 1 mM ATP, 1.8 mM NAD, 2 mM MgCl2, 1 μM sorbitol-6-phosphate, 1 mM dithiothreitol, test drug or 10% dimethylsulfoxide, ˜7 units/ml G6PDH, and GK (see below). All organic reagents were >98% pure and were from Boehringer Mannheim with the exceptions of D-glucose and Hepes which were from Sigma Chemical Co, St Louis, Mo. Test compounds were dissolved in dimethylsulfoxide and were added to the incubation reaction minus GST-GK in a volume of 12 μL to yield a final dimethylsulfoxide concentration of 10%. This mix was pre-incubated in the temperature controlled chamber of a SPECTRAmax 250 microplate spectrophotometer (Molecular Devices Corporation, Sunnyvale, Calif.) for 10 minutes to allow temperature equilibrium and then the reaction was started by the addition of 20 μL GST-GK.
After addition of enzyme, the increase in optical density (OD) at 340 nm was monitored spectrophotometrically to determine the rate of change (OD340 per min). The GK activity (OD340/min) in control wells (10% dimethylsulfoxide minus GK activators) was compared with the activity in wells containing test GK activators, and the concentration of activator that produced a 50% increase in the activity of GK, i.e., the SC1.5, was calculated.

Molecules are shown by their SMILES.

Turning to `CS(=O)(=O)c1ccc(/C(=C\C2CCC2)c2cc3cc(F)cnc3[nH]2)cc1` [Example 46, 2-[(E)-2-Cyclobutyl-1-(4-methanesulfonyl-phenyl)-vinyl]-5-fluoro-1H-pyrrolo[2,3-b]pyridine], the SC1.5 was determined as 0.028 µM.
On to `CS(=O)(=O)c1ccc(C(CC2CCC2)c2cc3cc(F)cnc3[nH]2)cc1` (stereo not shown) [Example 47, 2-[2-Cyclobutyl-1-(4-methanesulfonyl-phenyl)-ethyl]-5-fluoro-1H-pyrrolo[2,3-b]pyridine], for which the SC1.5 was determined as 0.415 µM.
As to `CS(=O)(=O)c1ccc(C(O)(CC2CCCC2)c2cc3cc(F)cnc3[nH]2)cc1` (stereo not shown) [Example 48, 2-Cyclopentyl-1-(5-fluoro-1H-pyrrolo[2,3-b]pyridin-2-yl)-1-(4-methanesulfonyl-phenyl)-ethanol], the SC1.5 worked out at 0.654 µM.
Regarding `N#Cc1ccc(C(CC2CCCC2)c2cc3cc(F)cnc3[nH]2)cc1` (stereo not shown) [Example 50, 4-[2-Cyclopentyl-1-(5-fluoro-1H-pyrrolo[2,3-b]pyridin-2-yl)-ethyl]-benzonitrile], the SC1.5 is 0.603 µM.
On the same count and under the same terms, the same measure for `CS(=O)(=O)c1ccc(C(CC2CCCC2)c2cc3cc(C#N)cnc3[nH]2)cc1` (stereo not shown) [Example 52, 2-[2-Cyclopentyl-1-(4-methanesulfonyl-phenyl)-ethyl]-1H-pyrrolo[2,3-b]pyridin-5-carbonitrile]: 0.37 µM.
As for `COC(=O)c1cnc2[nH]c(C(CC3CCCC3)c3ccc(S(C)(=O)=O)cc3)cc2c1` (stereo not shown) [Example 54, 2-[2-Cyclopentyl-1-(4-methanesulfonyl-phenyl)-ethyl]-1H-pyrrolo[2,3-b]pyridin-5-carboxylic acid methyl ester], the SC1.5 was found to be 1.2 µM.
With `CC(C)(O)c1ccc(C(CC2CCCC2)c2cc3cc(C(=O)O)cnc3[nH]2)cc1F` (stereo not shown) [Example 57, 2-{2-Cyclopentyl-1-[3-fluoro-4-(1-hydroxy-1-methyl-ethyl)-phenyl]-ethyl}-1H-pyrrolo[2,3-b]pyridin-5-carboxylic acid], the SC1.5 is 22.3 µM.
As to `CS(=O)(=O)c1ccc(C(CC2CCCC2)c2cc3cc(C(=O)NCCO)cnc3[nH]2)cn1` (stereo not shown) [Example 59, 2-[2-Cyclopentyl-1-(6-methanesulfonyl-pyridin-3-yl)-ethyl]-1H-pyrrolo[2,3-b]pyridin-5-carboxylic acid(2-hydroxy-ethyl)-amide], the SC1.5 came out at 5.5 µM.
As for `COc1ccc(C(CC2CCCC2)c2cc3cccnc3[nH]2)cn1` (stereo not shown) [Example 61], the SC1.5 stood at 3.0 µM.
Turning to `c1cnc2[nH]c(C(CC3CCCC3)c3ccc4c(c3)OCCO4)cc2c1` (stereo not shown) [Example 62, 2-[2-Cyclopentyl-1-(2,3-dihydro-benzo[1,4]-dioxin-6-yl)-ethyl]-1H-pyrrolo[2,3-b]pyridine], the SC1.5 worked out at 6.0 µM.
Consider `Cc1ccc(C(CC2CCCC2)c2cc3cccnc3[nH]2)cn1` (stereo not shown) [Example 63], for which the SC1.5 is 3.5 µM.
As to `CC(O)c1ccc(C(CC2CCCC2)c2cc3cccnc3[nH]2)cc1` (stereo not shown) [Example 64, 1-{4-[2-Cyclopentyl-1-(1H-pyrrolo[2,3-b]pyridin-2-yl)-ethyl]-phenyl}-ethanol], the SC1.5 came out at 2.2 µM.
With `CN(C)c1ccc(C(CC2CCCC2)c2cc3cccnc3[nH]2)cc1` (stereo not shown) [Example 65, {4-[2-Cyclopentyl-1-(1H-pyrrolo[2,3-b]pyridin-2-yl)-ethyl]-phenyl}-dimethyl-amine], the SC1.5 amounted to 2.8 µM.
As to `Cc1cc(C)cc(C(CC2CCCC2)c2cc3cccnc3[nH]2)c1` (stereo not shown) [Example 66, 2-[2-Cyclopentyl-1-(3.5-dimethyl-phenyl)-ethyl]-1H-pyrrolo[2,3-b]pyridine], the SC1.5 was 4.2 µM.
For `FC(F)(F)c1ccc(C(CC2CCOCC2)c2cc3cccnc3[nH]2)cc1` (stereo not shown) [Example 68, 2-[2-(Tetrahydro-pyran-4-yl)-1-(4-trifluoromethyl-phenyl)-ethyl]-1H-pyrrolo[2,3-b]pyridine], the SC1.5 is 0.888 µM.
On to `CS(=O)(=O)c1ccc(/C(=C\C2CCCO2)c2cc3cccnc3[nH]2)cc1` (stereo not shown) [Example 70, (E)-2-[1-(4-Methanesulfonyl-phenyl)-2-(tetrahydro-furan-2-yl)-vinyl]-1H-pyrrolo[2,3-b]pyridine], for which the SC1.5 was 0.082 µM.
As for `CS(=O)(=O)c1ccc(C(CC2CCCO2)c2cc3cccnc3[nH]2)cc1` (stereo not shown) [Example 71, 2-[1-(4-Methanesulfonyl-phenyl)-2-(tetrahydro-furan-2-yl)-ethyl]-1H-pyrrolo[2,3-b]pyridine], the SC1.5 turned out to be 2.3 µM.
For the molecule `COc1cnc2[nH]c(C(O)(CC3CCC3)c3ccc(S(C)(=O)=O)c(C(F)(F)F)c3)cc2c1` (stereo not shown) [Example 72, 2-Cyclobutyl-1-(4-methanesulfonyl-3-trifluoromethyl-phenyl)-1-(5-methoxy-1H-pyrrolo[2,3-b]pyridin-2-yl)-ethanol], the SC1.5 came to 13.3 µM.
Turning to `CC(C)(C)/C=C(\c1ccc(S(C)(=O)=O)cc1)c1cc2cccnc2[nH]1` [Example 73, 2-[(E)-1-(4-Methanesulfonyl-phenyl)-3,3-dimethyl-but-1-enyl]-1H-pyrrolo[2,3-b]pyridine], the SC1.5 came out at 0.653 µM.
For the molecule `CC(C)(C)CC(c1ccc(S(C)(=O)=O)cc1)c1cc2cccnc2[nH]1` (stereo not shown) [Example 74, 2-[1-(4-Methanesulfonyl-phenyl)-3,3-dimethyl-butyl]-1H-pyrrolo[2,3-b]pyridine], the SC1.5 is 20.6 µM.
With `CS(=O)(=O)Nc1ccc(C(CC2CCCC2)c2cc3cccnc3[nH]2)cc1` (stereo not shown) [Example 75, N-{4-[2-Cyclopentyl-1-(1H-pyrrolo[2,3-b]pyridin-2-yl)-ethyl]-phenyl}-methanesulfonamide], the SC1.5 stood at 2.5 µM.
As for `CS(=O)(=O)c1ccc(C(O)(CC2CCC2)c2cc3cccnc3[nH]2)cc1C(F)(F)F` (stereo not shown) [Example 76, 2-Cyclobutyl-1-(4-methanesulfonyl-3-trifluoromethyl-phenyl)-1-(1H-pyrrolo[2,3-b]pyridin-2-yl)-ethanol], the SC1.5 came out at 14.9 µM.
Consider `CS(=O)(=O)c1ccc(C(CC2CCC2)c2cc3cccnc3[nH]2)cc1C(F)(F)F` (stereo not shown) [Example 77, 2-[2-Cyclobutyl-1-(4-methanesulfonyl-3-trifluoromethyl-phenyl)-ethyl]-1H-pyrrolo[2,3-b]pyridine], for which the SC1.5 was 0.692 µM.
Same read-out and setting: the figure for `CC(=O)c1ccc(C(CC2CCCC2)c2cc3cccnc3[nH]2)cc1` (stereo not shown) [Example 80, 1-{4-[2-Cyclopentyl-1-(1H-pyrrolo[2,3-b]pyridin-2-yl)-ethyl]-phenyl}-ethanone] is 2.6 µM; for `CC(C)(O)c1ccc(C(CC2CCCC2)c2cc3cccnc3[nH]2)cc1` (stereo not shown) [Example 81, 2-{4-[2-Cyclopentyl-1-(1H-pyrrolo[2,3-b]pyridin-2-yl)-ethyl]-phenyl}-propan-2-ol] it is 2.3 µM.
For `CCC(O)(CC)c1ccc(C(CC2CCCC2)c2cc3cccnc3[nH]2)cc1` (stereo not shown) [Example 83, 3-{4-[2-Cyclopentyl-1-(1H-pyrrolo[2,3-b]pyridin-2-yl)-ethyl]-phenyl}-pentan-3-ol], the “fold activation of GK” value (at 30 μM) was 1.4 fold at 30.
Turning to `CC(C)C(C)(O)c1ccc(C(CC2CCCC2)c2cc3cccnc3[nH]2)cc1` (stereo not shown) [Example 85, 2-{4-[2-Cyclopentyl-1-(1H-pyrrolo[2,3-b]pyridin-2-yl)-ethyl]-phenyl}-3-methyl-butan-2-ol], the SC1.5 turned out to be 23.6 µM.
In the case of `O=S(=O)(CCO)c1ccc(C(CC2CCCC2)c2cc3cc(F)cnc3[nH]2)cc1` (stereo not shown) [Example 88, 2-{4-[2-Cyclopentyl-1-(5-fluoro-1H-pyrrolo[2,3-b]pyridin-2-yl)-ethyl]-benzenesulfonyl}-ethanol], the SC1.5 came to 0.178 µM.
On to `O=S(=O)(CCO)c1ccc(C(CC2CCOCC2)c2cc3cc(F)cnc3[nH]2)cc1` (stereo not shown) [Example 89], for which the SC1.5 was found to be 2.5 µM.
Regarding `CCOCCS(=O)(=O)c1ccc(C(CC2CCCC2)c2cc3cccnc3[nH]2)cc1` (stereo not shown) [Example 90, 2-{2-Cyclopentyl-1-[4-(2-ethoxy-ethanesulfonyl)-phenyl]-ethyl}-1H-pyrrolo[2,3-b]pyridine], the SC1.5 was found to be 0.73 µM.
Turning to `O=S(=O)(CCO)c1ccc(C(CC2CCCC2)c2cc3cccnc3[nH]2)cc1` (stereo not shown) [Example 91], the SC1.5 amounted to 0.832 µM.
